{"source": "paper PMC10305115", "about": "“Development of a Minimalistic Physiologically Based Pharmacokinetic (mPBPK) Model for the Preclinical Development of Spectinamide Antibiotics” (Pharmaceutics, 2023)", "key": {"[1]": {"test": "Integrated mouse and rat PBPK model, inter-animal variability", "conditions": "Intravenous Estimate (%RSE); simultaneous fit of mouse and rat plasma and tissue data"}, "[2]": {"test": "Pharmacokinetic studies in healthy rats", "format": "in vivo", "conditions": "male, Sprague-Dawley, rat, plasma, IV SD 10 mg/kg, generated in this study, read-out: AUCinf Observed", "description": "Urine samples were collected at predetermined time intervals (0–6, 6–10, 10–24, 24–48 h) up to 48 h after dosing, volumes were recorded, and samples were processed by protein precipitation and analyzed by LC-MS/MS. The fraction of drug excreted unchanged (fe) in urine at each time interval and a cumulative fe were calculated.\nAn additional single dose intravenous study of spectinamide 1599 with destructive sampling was performed to obtain the tissue PK profiles in rats. In this study, groups of four rats (two male and two female) were euthanized either at 15 min or at 4 h after dosing, and blood, lung, liver, spleen, and kidneys were collected. For tissue samples, the tissues were weighed and homogenized in four volumes of phosphate buffered saline (1× PBS) and stored at −70 °C until LC-MS/MS analysis.\nSample preparation was performed by protein precipitation using methanol. […]\nAn API 4500 triple quadruple mass spectrometer (Applied Biosystems, Foster City, CA, USA) equipped with a turbospray ion source was operated in the positive ion mode. Selected reaction monitoring using precursor→product ion combinations of m/z 487.2→207.1, 418→207.1, and 365.1→333.2 was used for quantification of spectinamides 1599, 1810 and the IS spectinomycin, respectively."}, "[3]": {"test": "Subcutaneous PBPK model predictions vs observed plasma concentrations in Mtb infected mice", "format": "in vivo, BALB/c mice", "conditions": "SC dose-ranging and dose-fractionation studies"}, "[4]": {"conditions": "cited from earlier work; for AUCinf Liver Observed / AUCinf Lung Observed / AUCinf Observed / AUCinf Spleen Observed: healthy mice; for AUCinf Observed: plasma"}, "in vivo": {"test": "in vivo", "conditions": "mouse"}, "[5]": {"test": "Fraction unbound in epithelial lining fluid calculated by Poulin and Theil equation, mouse", "conditions": "epithelial lining fluid (calculated), calculated from fu in plasma and albumin ratio plasma/ELF, read-out: fuELF fraction unbound in epithelial lining fluid", "description": "(§1) For intravenous administration, the bolus dose was assumed to be mixed instantaneously into the venous blood. For subcutaneous administration, the dose was administered as an external compartment, absorbed into the venous compartment via a first-order absorption rate constant and a bioavailability component. For intrapulmonary aerosol administration, we have modified the lung tissue by adding the epithelial lining fluid (ELF) sub-compartment, as shown in Figure 2. The physiological volume of the ELF sub-compartment was obtained from the literature. The dose was administered as an external compartment, absorbed into the ELF compartment via a first-order absorption rate constant and a bioavailability component. The compound was assumed to be bound to the ELF proteins, and only the unbound fraction was distributed to the other sub-compartments of the lungs and ultimately to the systemic circulation. The fraction unbound in ELF was calculated from the fraction unbound in plasma and the albumin ratio between plasma and ELF using the equation described by Poulin and Theil."}, "[6]": {"test": "Minimalistic PBPK model, mouse (fitting and simulation)"}, "[7]": {"test": "Parallel artificial membrane permeability assay (PAMPA)", "format": "in vitro ADME", "conditions": "passive permeability could not be determined"}, "[8]": {"test": "Fraction unbound in epithelial lining fluid calculated by Poulin and Theil equation, rat", "conditions": "epithelial lining fluid (calculated), calculated from fu in plasma and albumin ratio plasma/ELF, read-out: fuELF fraction unbound in epithelial lining fluid", "description": "as §1"}, "[9]": {"test": "Plasma protein binding by equilibrium dialysis (RED device), mouse plasma", "format": "in vitro ADME, BALB/c mice", "conditions": "BALB/c; Mouse plasma, 0.5 and 5 mg/L, 37 °C, 4 h; read-out: fuPlasma fraction unbound in plasma", "description": "(§2) Plasma protein binding was measured by equilibrium dialysis using a RED device (8 kDa molecular cutoff; Thermo Scientific, Rockford, IL, USA) containing plasma and buffer chambers for dialysis and a base plate. Two concentrations (0.5 and 5 mg/L) of 1599 and 1810 were prepared in mouse plasma from BALB/c mice and rat plasma from Sprague-Dawley rats, and an aliquot of 300 µL was added in the plasma chamber in duplicate. A 500 µL aliquot of PBS was added in the buffer chamber for dialysis. Then, the base plate was covered with sealing tape and incubated at 37 °C at approximately 100 rpm on an orbital shaker for 4 h to achieve equilibrium. After incubation, 50 µL of each sample was pipetted from the plasma and buffer chambers into separate micro-centrifuge tubes. A total of 50 µL of plasma was added to the buffer samples and an equal volume of PBS to the collected plasma samples and vortexed. Samples were processed by protein precipitation and analyzed for bound and unbound drug concentrations by liquid chromatography-tandem mass spectrometry (LC-MS/MS). Ranitidine (0.5 and 5 mg/L) was included as a positive control. The fraction of compound unbound to plasma proteins (fu) was calculated from the measured concentrations in the plasma and buffer chambers using the following equation:(1) fu=1−C(Plasma Chamber)−C(Buffer Chamber)/C(Plasma Chamber)"}, "plasma proteins": {"test_system": "plasma proteins", "test": "Plasma protein binding by equilibrium dialysis (RED device), mouse plasma", "format": "in vitro ADME, BALB/c mice", "conditions": "mouse and rat", "description": "as §2"}, "[10]": {"test": "Plasma protein binding by equilibrium dialysis (RED device), rat plasma", "format": "in vitro ADME, Sprague-Dawley rats", "conditions": "Sprague-Dawley, 0.5 and 5 mg/L, 37 °C, read-out: fuPlasma fraction unbound in plasma", "description": "as §2"}, "[11]": {"conditions": "Intravenous Estimate (%RSE), model fitted to IV single dose 10 mg/kg plasma and tissue data"}}, "note": "Like-named read-outs stand apart in the source and are kept apart here.", "data": [{"smiles": "CN[C@@H]1[C@H](O)[C@H](NC)[C@H]2O[C@]3(O)[C@H](O[C@@H]2[C@H]1O)O[C@H](C)C[C@H]3NC(=O)Cc1ccc(O)cn1", "note": "[Spectinamide 1810, 2-(5-hydroxypyridin-2-yl)-N-((2R,4R,4aS,5aR,6S,7S,8R,9S,9aR,10aS)-4a,7,9-trihydroxy-2-methyl-6,8-bis(methylamino)decahydro-2H-benzo[b]pyrano [2,3-e] [1,4]dioxin-4-yl)acetamide]", "values": [{"measurement": "ω KI→COther inter-animal variability on KI→COthers", "setting": "[1]", "result": "0.31 (14.7)"}, {"measurement": "AUC(0-inf)", "setting": "[2]", "result": 20800, "unit": "ng·h/mL"}, {"measurement": "difference in pharmacokinetics between healthy and infected mice", "setting": "[3]", "result": "no significant difference"}, {"measurement": "dose dependency of disposition", "setting": "[4]; dose range of 10 to 400 mg/kg in mice", "result": "did not suggest any dose dependencies"}, {"measurement": "AUCinf Liver Observed", "setting": "[4]; IV QD5 10 mg/kg", "result": 51.2, "unit": "µg·h/g"}, {"measurement": "AUCinf Liver Observed", "setting": "[4]; IV SD 10 mg/kg", "result": 31.6, "unit": "µg·h/g"}, {"measurement": "AUCinf Lung Observed", "setting": "[4]; IV QD5 10 mg/kg", "result": 11.2, "unit": "µg·h/g"}, {"measurement": "AUCinf Lung Observed", "setting": "[4]; IV SD 10 mg/kg", "result": 5.75, "unit": "µg·h/g"}, {"measurement": "AUCinf Observed", "setting": "[4]; IV QD5 10 mg/kg", "result": 9450, "unit": "ng·h/mL"}, {"measurement": "AUCinf Observed", "setting": "[4]; IV SD 10 mg/kg", "result": 7910, "unit": "ng·h/mL"}, {"measurement": "AUCinf Observed", "setting": "[4]; SC QD5 50 mg/kg", "result": 65500, "unit": "ng·h/mL"}, {"measurement": "AUCinf Observed", "setting": "[4]; SC QD5 200 mg/kg", "result": 265000, "unit": "ng·h/mL"}, {"measurement": "AUCinf Observed", "setting": "[4]; SC SD 46 mg/kg", "result": 38600, "unit": "ng·h/mL"}, {"measurement": "AUCinf Observed", "setting": "[4]; SC SD 50 mg/kg", "result": 67900, "unit": "ng·h/mL"}, {"measurement": "AUCinf Observed", "setting": "[4]; SC SD 200 mg/kg", "result": 267000, "unit": "ng·h/mL"}, {"measurement": "AUCinf Spleen Observed", "setting": "[4]; IV QD5 10 mg/kg", "result": 9.45, "unit": "µg·h/g"}, {"measurement": "AUCinf Spleen Observed", "setting": "[4]; IV SD 10 mg/kg", "result": 4.29, "unit": "µg·h/g"}, {"measurement": "half-life", "setting": "in vivo", "result": 5, "unit": "min"}, {"measurement": "bioavailability", "setting": "in vivo; sc", "result": 100, "unit": "%"}, {"measurement": "fraction unbound", "setting": "[5]", "result": 0.965}, {"measurement": "KC→IKidney 1st order back flux from cellular sub compartment of the kidney", "setting": "[6]; [11]", "result": "0.097 (45.1) 1/h"}, {"measurement": "KC→ILiver 1st order back flux from cellular sub compartment of the liver", "setting": "[6]; [11]", "result": "0.051 (17.2) 1/h"}, {"measurement": "KC→ILung 1st order back flux from cellular sub compartment of the lung", "setting": "[6]; [11]", "result": "0.076 (17.6) 1/h"}, {"measurement": "KC→ISpleen 1st order back flux from cellular sub compartment of the spleen", "setting": "[6]; [11]", "result": "0.013 (120) 1/h"}, {"measurement": "KC→Iothers 1st order back flux from cellular sub compartment of the other tissues", "setting": "[6]; [11]", "result": "7.0 × 10^−5 (0.00278) 1/h"}, {"measurement": "Ka 1st order absorption rate constant", "setting": "[6]; Subcutaneous Estimate (%RSE), healthy mice", "result": "8.26 (14.5)"}, {"measurement": "PAMPA concentrations in the acceptor compartment", "setting": "[7]", "result": "below the limit of detection"}, {"measurement": "fraction unbound", "setting": "[8]", "result": 0.95}, {"measurement": "fraction unbound at 4 h", "setting": "[9]", "result": 0.693}, {"measurement": "plasma protein binding", "setting": "plasma proteins", "result": "low plasma protein binding"}, {"measurement": "fraction unbound at 4 h", "setting": "[10]", "result": 0.607}]}]}
